Series [1] concerns adult female Aedes aegypti. The experiment in a line: Topical combination of Formula 13 with synthetic insecticides (FIGS. 6-9). Particulars: for 24-hr percentage mortality: 0.2 μL acetone, Formula 13 500 μg/mL, dibrom 10 μg/mL, thiamethoxam 100 μg/mL, permethrin 2.5 μg/mL, alone or in combination. It is filed as in vivo. The protocol:
A low-dose concentration of Formula 13 (500 μg/mL) was applied in combination with chlorfenapyr (75 μg/mL), dibrom (10 μg/mL), thiamethoxam (100 μg/mL), and permethrin (2.5 μg/mL) to the pronotum of adult female Aedes aegypti in 0.2 μL of acetone. These concentrations were chosen as they produced little-to-no mortality at 24 hours after application. Knockdown (immobilization) was recorded at 1 hour after application and mortality was recorded at 24, 48, and 72 hours after initial application. These applications were run in parallel to a topical application of a combined mixture of 500 μg/mL Formula 13 and 75 μg/mL of chlorfenpayr to the pronotum of adult female mosquitoes. For this experiment, total of 25 mosquitoes were treated within each replicate, with a minimum of 3 replicates utilized for each treatment. Synergism was defined as the higher percentage mortality in the insecticidal combination of both Formula 13 and chlorfenapyr compared to each individual component applied by itself.

Another series has as its system adult, female mosquitoes. The experiment in a line: Topical application on adult female mosquitoes (24-h mortality, 1-h knockdown). It is filed as in vivo, mosquito. The settings on record: for ED50: read-out: KD50 (ug/g mosquito); for LD50: read-out: LD50 (ug/g mosquito); for insecticidal properties compared with natural pogostone, natural pyrethrins or terpenoids: words, refers to Table 1.

Another series deals with house flies. The experiment in a line: Topical application on house flies. The settings on record: for LD50 (ug/g fly): House Fly Toxicity, topical.
A further series has as its system adult house flies. Kind of series: Topical application of pogostone derivatives with PBO or plant essential oil on house flies. It is filed as in vivo, house fly. As to the method:
Combinations of select pogostone derivatives with select concentrations of PBO or plant essential oils was performed. […] Synergists were applied as a subsequent application directly after the application of pogostone derivatives. Concentrations of synergists (plant oils or PBO) were chosen that produced no mortality at 24 hours when applied alone.
To assess the ability of PBO to increase the toxicity of a wide variety of pogostone derivatives, PBO and the pogostone derivatives were applied in combination to the pronotum of house flies.
Finally, the potential of plant essential oils to synergize the effect of Formula 30 was assessed.

In the next series the test system is adult female mosquitoes. The experiment in a line: whole plant or invertebrate. As to the method: The first group of DHAA-based derivatives that were tested included Formula A2, Formula B3, Formula C3, and Formula D3. A solution of 0.5% or 1.5% of each of these compounds was applied to the mosquitoes, as described above. […] Acetone was used as a control.
For series [2], the system named is 3-4 instar Aedes aegypti larvae. Kind of series: Mosquito larvicide bioassay. Particulars: for LC50: Aedes aegypti, 24 h. The class given is in vivo. As to the method:
Mosquito larvicide bioassays were performed by introducing various concentrations of test compounds (pyrone derivatives and rotenone) into acetone at various concentrations. 200 uL of these solutions were added to individual cups containing 10, 3-4 instar Aedes aegypti larvae and 25 mL of DI water. 2 mg of Tetramin™ was provided to each cup as a food source. […] Ataxia was used as the indicator of larval mortality. At least 5 concentrations were used which caused between 10 and 90% mortality. LC50 values were calculated using a PROC PROBIT model in SAS 9.4.

Another series has as its system adult flies. The experiment in a line: Contact toxicity on treated filter paper. The class given is in vivo. Particulars: filter paper treated with 1 mL in acetone; 24 hours. The protocol:
Filter papers were treated with 1 mL of the disclosed compounds in acetone at varying concentrations, and the filter papers were placed in a dish. Ten adult flies were added to each dish and a sugar pad was added to each dish to ensure that any mortality could be attributed to the compound instead of starvation. Mortality was assessed at 24 hours.

[3] abbreviates: house flies, topical, derivative alone or in combination with PBO.
Where [4] appears, read: Mosquito Knockdown Properties (1 hour), topical application.
[5] abbreviates: Mosquito Toxicity (24 hours), topical application to pronotum.

≈ marks a conversion by molar mass, not a printed value. Entries after “also recorded” stand apart in the source; their conditions may differ. Like-named read-outs stand apart in the source and are kept apart here.

Take `CC1(C)C(C=C(Cl)Cl)C1C(=O)OCc1cccc(Oc2ccccc2)c1` (racemic) [Permethrin, 3-phenoxybenzyl (1RS)-cis,trans-3-(2,2-dichlorovinyl)-2,2-dimethylcyclopropanecarboxylate]: in series [1], the 24-hr percentage mortality was determined as 28%.

Turning to `COP(=O)(OC)OC(Br)C(Cl)(Cl)Br` (stereo not drawn) [Dibrom], the 24-hr percentage mortality in series [1] was 11%.

For the compound `CC(C)C(=O)c1c(O)c2ccccc2oc1=O` [Formula 19], in the series on adult, female mosquitoes (topical, 1 h), the ED50 worked out at 384 mg/kg. The LD50 with adult, female mosquitoes (topical, 24 h) was 24.7 mg/kg; with adult house flies (setting [3]) it was 1495 µg/g; in the series with adult female mosquitoes (topical, 24 h, read-out: 24-hour Mortality LD50 (μg/g mosquito)), 25 mg/kg. The “insecticidal properties compared with natural pogostone, natural pyrethrins or terpenoids” value in the series on adult, female mosquitoes is “possessed better insecticidal properties at least as well as natural pyrethrins”. Further, in the series on house flies, the “LD50 (ug/g fly)” value is on record as 1495 ug/g fly. Moreover, the “1-hour Knockdown EC50 (μg/g mosquito)” value in the series on adult female mosquitoes (mosquito, topical, 1 hour) came out at 384.5 μg/g mosquito.

Take `CCOC(=O)/C(C(C)=O)=C(/O)c1ccccc1` [Formula 28]: the ED50 in the series on adult, female mosquitoes (topical, 1 h) is greater than 1500 mg/kg. Moreover, the LD50 with adult, female mosquitoes (topical, 24 h) is greater than 1500 mg/kg. This compound also showed an LC50 in series [2] of 9.16 µg/mL. The “larvicidal properties compared with natural pogostone or rotenone” value in series [2] (words) was “possessed better larvicidal properties than natural pogostone”.

Turning to `CC(C)C(=O)c1c(O)c2cc(F)ccc2oc1=O` [Formula 30], the ED50 in the series on adult, female mosquitoes (setting [4]) was greater than 1500 mg/kg. Further, the LD50 was 45.6 mg/kg in the series on adult, female mosquitoes (setting [5]) and 645 µg/g in the series with adult house flies (setting [3]). The “insecticidal properties compared with natural pogostone, natural pyrethrins or terpenoids” value in the series with adult, female mosquitoes is recorded as “possessed better insecticidal properties than natural pogostone”. Besides, in the series with house flies, the “LD50 (ug/g fly)” value is listed as 645 ug/g fly. In addition, the “toxicity to house flies” value in the series with house flies (words) was “extremely effective at killing house flies”. The “toxicity of Formula 30 in combination with cedarwood (Texas type) oil (CWT)” value with adult house flies (1% CWT, dose-response curves FIG. 11) was “significant increase in toxicity; also recorded: shifting the dose-response curve to the left”. The “toxicity of Formula 30 in combination with PBO” value in the series on adult house flies (1% PBO, dose-response curves FIG. 11) is given as “significant increase in toxicity; also recorded: shifting the dose-response curve to the left”.

With `O=C(c1c(O)c2ccccc2oc1=O)C(Cl)Cl` [Formula 31], in the series on adult, female mosquitoes (setting [4]), the ED50 is greater than 1500 mg/kg. Also, the LD50 in the series with adult, female mosquitoes (setting [5]) is greater than 1500 mg/kg. Moreover, the “LD50 (ug/g fly)” value with house flies is reported as >6,000 ug/g fly. In the series on adult house flies (setting [3]), the “LD50 (μg/g)” value was >6,000 μg/g.

Turning to `C=C(C)C(O)CC(=O)c1c(O)cc(C)oc1=O` (stereo not drawn) [Formula C19], in the series with adult flies, the “percent mortality, 0.10% Concentration” value worked out at 0%; the “percent mortality, 0.25% Concentration” value is 0%; the “percent mortality, 0.50% Concentration” value is 0%. For the same compound, the pest or weed control at 0.5 % in the series on adult female mosquitoes (Culicidae, topical, 1 h, read-out: Knockdown at 0.5%) was found to be 83%. In addition, the pest or weed control at 1.5 % in the series on adult female mosquitoes (Culicidae, topical, 1 h, read-out: Knockdown at 1.5%) came to 83%. Further, the mortality at 0.5 % in the series on adult female mosquitoes (Culicidae, topical, 24 h, read-out: Mortality at 0.5%) came out at 83%. Moreover, the mortality at 1.5 % in the series with adult female mosquitoes (Culicidae, topical, 24 h, read-out: Mortality at 1.5%) came out at 77%. For the same compound, the “ranking in knockdown and mortality screenings” value with adult female mosquitoes (words) was “appear to be the most potent insecticidal compounds”.

On to `C=C(C)[C@H]1Cc2c(ccc3c2O[C@@H]2COc4cc(OC)c(OC)cc4[C@@H]2C3=O)O1` [Rotenone, reference compound], for which the LC50 in series [2] is 0.35 µg/mL (≈ 0.887 µM).

`CN1COCN(Cc2cnc(Cl)s2)C1=N[N+](=O)[O-]` [Thiamethoxam, 3-((2-chloro-5-thiazolyl)methyl)-5-methyl-4-nitroiminotetrahydro-1,3,5-oxadiazine]: in series [1], the 24-hr percentage mortality came to 25.6%.

Consider `CCOCn1c(-c2ccc(Cl)cc2)c(C#N)c(Br)c1C(F)(F)F` [chlorfenapyr, 4-bromo-2-(4-chlorophenyl)-1-ethoxymethyl-5-trifluoromethylpyrrol-3-carbonitrile], for which the “percentage mortality at 24 hour” value in series [1] (chlorfenapyr 75 ug/mL, Formula 13 500 ug/mL, alone or combined, words) is “very low mortality”.

As a reminder, the LC50 is the concentration that kills 50% of the test population. Lower therefore signals a more lethal substance. One may read the mortality as the share of the test organisms that died.

For the origin of these results see patent publication US20200024246A1, “POGOSTONE DERIVATIVES AND METHODS OF USING THE SAME” (Hamyard Associates LLC, priority 2018, published 2020).
